Data published in patent publication US20230085307A1, “PYRIDAZINONE COMPOUND AND HERBICIDE” (NISSAN CHEMICAL CORPORATION, priority 2019, published 2023).

Key:
velvetleaf [1] = assay: Test Example 5: herbicidal effect by foliage application, plastic box (Table 20, symbol M); assay type: in vivo, velvetleaf (Abutilon theophrasti); settings: 320 g/ha
Procedure, shortened: (§1)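 Plants were sown into sterilized diluvial soil under about 1.5 cm cover and kept in a greenhouse at 25° C. to 30° C. Fourteen days on, foliage received an even spray of the diluted emulsion. Herbicidal or crop effect was judged three weeks afterwards.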

false cleavers = assay: Test Example 4: herbicidal effect by soil treatment (Table 19, symbol Q); assay type: in vivo, false cleavers (Galium spurium); settings: amount of applied herbicide 320 g/ha
Procedure, shortened: (§2)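 In this soil treatment, the formulated compound reached the seeds only through the soil: seeds were buried about 1.5 cm deep in sterilized diluvial soil, then the diluted emulsion was sprayed over the surface. After three weeks at 25° C. to 30° C. in a greenhouse, effects were graded on criteria from an earlier test.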

wild oat [2] = assay: Test Example 5: herbicidal effect by foliage application, plastic box (Table 20, symbol I); assay type: in vivo, wild oat (Avena fatua); settings: 320 g/ha
Procedure, shortened: as §1

velvetleaf [3] = assay: Test Example 4: herbicidal effect by soil treatment (Table 19, symbol M); assay type: in vivo, velvetleaf (Abutilon theophrasti); settings: amount of applied herbicide 320 g/ha
Procedure, shortened: as §2

chickweed [4] = assay: Test Example 4: herbicidal effect by soil treatment (Table 19, symbol P); assay type: in vivo, common chickweed (Stellaria media); settings: amount of applied herbicide 320 g/ha
Procedure, shortened: as §2

southern crabgrass [5] = assay: Test Example 5: herbicidal effect by foliage application, plastic box (Table 20, symbol F); assay type: in vivo, southern crabgrass (Digitaria ciliaris); settings: 320 g/ha
Procedure, shortened: as §1

barnyard grass [6] = assay: Test Example 3: herbicidal effect by foliage application, Wagner pot (Table 18, symbol H); assay type: in vivo, barnyard grass (Echinochloa crus-galli); settings: 320 g/ha
Procedure, shortened: (§3)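 Plants were sown in alluvial soil held under 0.1–0.5 cm standing water and grown 14 days in a greenhouse at 25–30 °C. An emulsifiable formulation, water-diluted to the set dose, was then sprayed onto the foliage, and effects were scored three weeks later using previously defined criteria.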

lambsquarters [7] = assay: Test Example 4: herbicidal effect by soil treatment (Table 19, symbol O); assay type: in vivo, lambsquarters (Chenopodium album); settings: amount of applied herbicide 320 g/ha
Procedure, shortened: as §2

windgrass [8] = assay: Test Example 5: herbicidal effect by foliage application, plastic box (Table 20, symbol L); assay type: in vivo, windgrass (Apera spica-venti); settings: 320 g/ha
Procedure, shortened: as §1

barnyard grass [9] = assay: Test Example 5: herbicidal effect by foliage application, plastic box (Table 20, symbol H); assay type: in vivo, barnyard grass (Echinochloa crus-galli); settings: 320 g/ha
Procedure, shortened: as §1

wild oat [10] = assay: Test Example 4: herbicidal effect by soil treatment (Table 19, symbol I); assay type: in vivo, wild oat (Avena fatua); settings: amount of applied herbicide 320 g/ha
Procedure, shortened: as §2

persian speedwell [11] = assay: Test Example 5: herbicidal effect by foliage application, plastic box (Table 20, symbol R); assay type: in vivo, Persian speedwell (Veronica persica); settings: 320 g/ha
Procedure, shortened: as §1

lambsquarters [12] = assay: Test Example 5: herbicidal effect by foliage application, plastic box (Table 20, symbol O); assay type: in vivo, lambsquarters (Chenopodium album); settings: 320 g/ha
Procedure, shortened: as §1

windgrass [13] = assay: Test Example 4: herbicidal effect by soil treatment (Table 19, symbol L); assay type: in vivo, windgrass (Apera spica-venti); settings: amount of applied herbicide 320 g/ha
Procedure, shortened: as §2

green foxtail [14] = assay: Test Example 5: herbicidal effect by foliage application, plastic box (Table 20, symbol G); assay type: in vivo, green foxtail (Setaria viridis); settings: 320 g/ha
Procedure, shortened: as §1

southern crabgrass [15] = assay: Test Example 4: herbicidal effect by soil treatment (Table 19, symbol F); assay type: in vivo, southern crabgrass (Digitaria ciliaris); settings: amount of applied herbicide 320 g/ha
Procedure, shortened: as §2

Chinese sprangletop = assay: Test Example 3: herbicidal effect by foliage application, Wagner pot (Table 18, symbol D); assay type: in vivo, chinese sprangletop (Leptochloa chinensis); settings: 320 g/ha
Procedure, shortened: as §3

Italian ryegrass [16] = assay: Test Example 5: herbicidal effect by foliage application, plastic box (Table 20, symbol K); assay type: in vivo, Italian ryegrass (Lolium multiflorum); settings: 320 g/ha
Procedure, shortened: as §1

redroot pigweed [17] = assay: Test Example 4: herbicidal effect by soil treatment (Table 19, symbol N); assay type: in vivo, redroot pigweed (Amaranthus retroflexus); settings: amount of applied herbicide 320 g/ha
Procedure, shortened: as §2

blackgrass [18] = assay: Test Example 5: herbicidal effect by foliage application, plastic box (Table 20, symbol J); assay type: in vivo, blackgrass (Alopecurus myosuroides); settings: 320 g/ha
Procedure, shortened: as §1

barnyard grass [19] = assay: Test Example 4: herbicidal effect by soil treatment (Table 19, symbol H); assay type: in vivo, barnyard grass (Echinochloa crus-galli); settings: amount of applied herbicide 320 g/ha
Procedure, shortened: as §2

chickweed [20] = assay: Test Example 5: herbicidal effect by foliage application, plastic box (Table 20, symbol P); assay type: in vivo, common chickweed (Stellaria media); settings: 320 g/ha
Procedure, shortened: as §1

rice flat sedge = assay: Test Example 3: herbicidal effect by foliage application, Wagner pot (Table 18, symbol E); assay type: in vivo, rice flat sedge (Cyperus iria); settings: 320 g/ha
Procedure, shortened: as §3

blackgrass [21] = assay: Test Example 4: herbicidal effect by soil treatment (Table 19, symbol J); assay type: in vivo, blackgrass (Alopecurus myosuroides); settings: amount of applied herbicide 320 g/ha
Procedure, shortened: as §2

redroot pigweed [22] = assay: Test Example 5: herbicidal effect by foliage application, plastic box (Table 20, symbol N); assay type: in vivo, redroot pigweed (Amaranthus retroflexus); settings: 320 g/ha
Procedure, shortened: as §1

persian speedwell [23] = assay: Test Example 4: herbicidal effect by soil treatment (Table 19, symbol R); assay type: in vivo, Persian speedwell (Veronica persica); settings: amount of applied herbicide 320 g/ha
Procedure, shortened: as §2

Italian ryegrass [24] = assay: Test Example 4: herbicidal effect by soil treatment (Table 19, symbol K); assay type: in vivo, Italian ryegrass (Lolium multiflorum); settings: amount of applied herbicide 320 g/ha
Procedure, shortened: as §2

green foxtail [25] = assay: Test Example 4: herbicidal effect by soil treatment (Table 19, symbol G); assay type: in vivo, green foxtail (Setaria viridis); settings: amount of applied herbicide 320 g/ha
Procedure, shortened: as §2

[26] = foliage application, three weeks after application
[27] = foliage application after 14-day growth, evaluated three weeks after application

Cc1nn(C)c(=O)c(-c2c(-c3ccc(OC(F)(F)F)cc3)sc3cc(F)ccc23)c1O [3-143]
M: velvetleaf, herbicidal effect grade (velvetleaf [1]; [26]): 5 (Herbicidal rate of 90% or more (almost completely withered)) | Herbicidal effect by soil treatment, Q: false cleavers (false cleavers): 3 (Herbicidal rate of 40% or more and less than 70%) | I: wild oat, herbicidal effect grade (wild oat [2]; [26]): 0 (Herbicidal rate of 5% or less (almost no effect)) | Herbicidal effect by soil treatment, M: velvetleaf (velvetleaf [3]): 0 (Herbicidal rate of 5% or less (almost no effect)) | Herbicidal effect by soil treatment, P: chickweed (chickweed [4]): 0 (Herbicidal rate of 5% or less (almost no effect)) | F: southern crabgrass, herbicidal effect grade (southern crabgrass [5]; [26]): 1 (Herbicidal rate of 5% or more and less than 20%) | herbicidal effect on barnyard grass (H) (barnyard grass [6]): 5 (Herbicidal rate of 90% or more (almost completely withered)) | Herbicidal effect by soil treatment, O: lambsquarters (lambsquarters [7]): 4 (Herbicidal rate of 70% or more and less than 90%) | L: windgrass, herbicidal effect grade (windgrass [8]; [26]): 5 (Herbicidal rate of 90% or more (almost completely withered)) | H: barnyard grass, herbicidal effect grade (barnyard grass [9]; [26]): 4 (Herbicidal rate of 70% or more and less than 90%) | Herbicidal effect by soil treatment, I: wild oat (wild oat [10]): 0 (Herbicidal rate of 5% or less (almost no effect)) | R: persian speedwell, herbicidal effect grade (persian speedwell [11]; [26]): 5 (Herbicidal rate of 90% or more (almost completely withered)) | O: lambsquarters, herbicidal effect grade (lambsquarters [12]; [26]): 5 (Herbicidal rate of 90% or more (almost completely withered)) | Herbicidal effect by soil treatment, L: windgrass (windgrass [13]): 4 (Herbicidal rate of 70% or more and less than 90%) | G: green foxtail, herbicidal effect grade (green foxtail [14]; [26]): 4 (Herbicidal rate of 70% or more and less than 90%) | Herbicidal effect by soil treatment, F: southern crabgrass (southern crabgrass [15]): 0 (Herbicidal rate of 5% or less (almost no effect)) | herbicidal effect on Chinese sprangletop (D) (Chinese sprangletop): 4 (Herbicidal rate of 70% or more and less than 90%) | K: Italian ryegrass, herbicidal effect grade (Italian ryegrass [16]; [26]): 5 (Herbicidal rate of 90% or more (almost completely withered)) | Herbicidal effect by soil treatment, N: redroot pigweed (redroot pigweed [17]): 4 (Herbicidal rate of 70% or more and less than 90%) | J: blackgrass, herbicidal effect grade (blackgrass [18]; [26]): 5 (Herbicidal rate of 90% or more (almost completely withered)) | Herbicidal effect by soil treatment, H: barnyard grass (barnyard grass [19]): 0 (Herbicidal rate of 5% or less (almost no effect)) | P: chickweed, herbicidal effect grade (chickweed [20]; [26]): 5 (Herbicidal rate of 90% or more (almost completely withered)) | herbicidal effect on rice flat sedge (E) (rice flat sedge): 5 (Herbicidal rate of 90% or more (almost completely withered)) | Herbicidal effect by soil treatment, J: blackgrass (blackgrass [21]): 0 (Herbicidal rate of 5% or less (almost no effect)) | N: redroot pigweed, herbicidal effect grade (redroot pigweed [22]; [26]): 5 (Herbicidal rate of 90% or more (almost completely withered)) | Herbicidal effect by soil treatment, R: persian speedwell (persian speedwell [23]): 3 (Herbicidal rate of 40% or more and less than 70%) | Herbicidal effect by soil treatment, K: Italian ryegrass (Italian ryegrass [24]): 0 (Herbicidal rate of 5% or less (almost no effect)) | Herbicidal effect by soil treatment, G: green foxtail (green foxtail [25]): 2 (Herbicidal rate of 20% or more and less than 40%)

Cc1nn(C)c(=O)c(-c2c(-c3ccc(C#N)cc3)sc3c(F)cccc23)c1O [4-052]
herbicidal effect on M: velvetleaf (evaluation grade 0-5) (velvetleaf [1]; [27]): 5 (Herbicidal rate of 90% or more (almost completely withered)) | Herbicidal effect by soil treatment, Q: false cleavers (false cleavers): 0 (Herbicidal rate of 5% or less (almost no effect)) | herbicidal effect on I: wild oat (evaluation grade 0-5) (wild oat [2]; [27]): 0 (Herbicidal rate of 5% or less (almost no effect)) | Herbicidal effect by soil treatment, M: velvetleaf (velvetleaf [3]): 1 (Herbicidal rate of 5% or more and less than 20%) | Herbicidal effect by soil treatment, P: chickweed (chickweed [4]): 3 (Herbicidal rate of 40% or more and less than 70%) | herbicidal effect on F: southern crabgrass (evaluation grade 0-5) (southern crabgrass [5]; [27]): 0 (Herbicidal rate of 5% or less (almost no effect)) | herbicidal effect on barnyard grass (H) (barnyard grass [6]): 5 (Herbicidal rate of 90% or more (almost completely withered)) | Herbicidal effect by soil treatment, O: lambsquarters (lambsquarters [7]): 2 (Herbicidal rate of 20% or more and less than 40%) | herbicidal effect on L: windgrass (evaluation grade 0-5) (windgrass [8]; [27]): 0 (Herbicidal rate of 5% or less (almost no effect)) | herbicidal effect on H: barnyard grass (evaluation grade 0-5) (barnyard grass [9]; [27]): 5 (Herbicidal rate of 90% or more (almost completely withered)) | Herbicidal effect by soil treatment, I: wild oat (wild oat [10]): 0 (Herbicidal rate of 5% or less (almost no effect)) | herbicidal effect on R: persian speedwell (evaluation grade 0-5) (persian speedwell [11]; [27]): 5 (Herbicidal rate of 90% or more (almost completely withered)) | herbicidal effect on O: lambsquarters (evaluation grade 0-5) (lambsquarters [12]; [27]): 4 (Herbicidal rate of 70% or more and less than 90%) | Herbicidal effect by soil treatment, L: windgrass (windgrass [13]): 0 (Herbicidal rate of 5% or less (almost no effect)) | herbicidal effect on G: green foxtail (evaluation grade 0-5) (green foxtail [14]; [27]): 5 (Herbicidal rate of 90% or more (almost completely withered)) | Herbicidal effect by soil treatment, F: southern crabgrass (southern crabgrass [15]): 0 (Herbicidal rate of 5% or less (almost no effect)) | herbicidal effect on Chinese sprangletop (D) (Chinese sprangletop): 3 (Herbicidal rate of 40% or more and less than 70%) | herbicidal effect on K: Italian ryegrass (evaluation grade 0-5) (Italian ryegrass [16]; [27]): 3 (Herbicidal rate of 40% or more and less than 70%) | Herbicidal effect by soil treatment, N: redroot pigweed (redroot pigweed [17]): 4 (Herbicidal rate of 70% or more and less than 90%) | herbicidal effect on J: blackgrass (evaluation grade 0-5) (blackgrass [18]; [27]): 0 (Herbicidal rate of 5% or less (almost no effect)) | Herbicidal effect by soil treatment, H: barnyard grass (barnyard grass [19]): 0 (Herbicidal rate of 5% or less (almost no effect)) | herbicidal effect on P: chickweed (evaluation grade 0-5) (chickweed [20]; [27]): 5 (Herbicidal rate of 90% or more (almost completely withered)) | herbicidal effect on rice flat sedge (E) (rice flat sedge): 4 (Herbicidal rate of 70% or more and less than 90%) | Herbicidal effect by soil treatment, J: blackgrass (blackgrass [21]): 0 (Herbicidal rate of 5% or less (almost no effect)) | herbicidal effect on N: redroot pigweed (evaluation grade 0-5) (redroot pigweed [22]; [27]): 5 (Herbicidal rate of 90% or more (almost completely withered)) | Herbicidal effect by soil treatment, R: persian speedwell (persian speedwell [23]): 4 (Herbicidal rate of 70% or more and less than 90%) | Herbicidal effect by soil treatment, K: Italian ryegrass (Italian ryegrass [24]): 0 (Herbicidal rate of 5% or less (almost no effect)) | Herbicidal effect by soil treatment, G: green foxtail (green foxtail [25]): 0 (Herbicidal rate of 5% or less (almost no effect))
